In US20140329692A1, “METHOD FOR MEASURING DNA METHYLATION PROFILES” (ALBERT EINSTEIN COLLEGE OF MEDICINE OF YESHIVA UNIVERSITY, priority 2013, published 2014):

Tests used:
global methylation = settings: 5-Aza treatment; cited from earlier work
promoter region of Oct4 = assay: DNA methylation profile of the Oct4 promoter in 5-Aza-treated MEFs (bisulfite treatment, MDA amplification, nested PCR, Sanger sequencing); assay type: cell-based, mouse; settings: 1 μM 5-Aza
Text: To definitively test the protocol, it was investigated whether it was capable of directly detecting epimutations, i.e., random changes in methylation status of single cytosines as a consequence of, for example, errors in de novo or maintenance methylation. While estimates of DNA methylation accuracy have been reported (13, 14), it has never been possible to directly determine such epimutations. To test if the method was able to detect single cell-specific epimutations, a time course experiment was performed in MEFs treated with 5-azacytidine (5-Aza). 5-Aza prevents methylation at CpG sites in newly synthesized DNA through covalent binding to Dnmt1 (15). […] Cultured cells were treated with 1 μM 5-Aza for 48 and 72 hours; ten single cells as well as 100-cell controls from each treatment group were subjected to lysis and bisulfite treatment followed by MDA amplification. Then the promoter region of Oct4 was tested and it was shown that a fully methylated pattern of CpG sites was present in the untreated single fibroblasts as well as in the 100-cell control (FIG. 1B, upper panel).
Isolation of single mouse embryonic fibroblasts: Mouse embryonic fibroblasts (MEFs) were isolated from embryonic day 13.5 embryos of C57BL/6 mice as described (31). All cultures were maintained in a 3% O2 and 5% CO2 atmosphere. The solutions of 5-aza-2′-deoxycytidine (5-Aza; Sigma, St. Louis, Mo., USA) in culturing medium were prepared at the time of application and applied every 24 hours for 72 hours. After trypsinization, single MEFs were collected under an inverted microscope by hand-held capillaries, deposited in PCR tubes and immediately frozen on dry ice and stored at […] until needed or immediately bisulfite-converted.
Bisulfite conversion: The bisulfite conversion and recovery of DNA were performed using the EZ DNA Methylation-Direct Kit (Zymo Research, Orange, Calif.). Bisulfite conversion was performed according to the instructions of the supplier with some modifications. First the bisulfite solution was added to the single or 100 cells together with 2 ng of salmon sperm DNA or tRNA. […]

Nc1ncn([C@H]2C[C@H](O)[C@@H](CO)O2)c(=O)n1 [5-Aza, 5-aza-2′-deoxycytidine]
global methylation (global methylation): significant decrease in global methylation | demethylation of Oct4 promoter (promoter region of Oct4; 48 hours, 100-cell sample): < 50% | methylation status of Oct4 promoter CpG sites (promoter region of Oct4; 48 hours, single fibroblasts): a mixed population was found comprising either methylated or unmethylated cytosines | methylation status of Oct4 promoter CpG sites (promoter region of Oct4; 72 hours, both single fibroblasts and 100-cell control sample): fully demethylated
